# In patent US10308938B2, “Compositions and methods to activate or inhibit toll-like receptor signaling” (priority 2014, dated 2019):
# “Also recorded” adds a separate entry of the source.
# What was measured:
# CD4^+ T cells [1] = experiment: Phosphorylation status of signaling molecules by flow cytometry; Jun gene expression; assay type: cell-based, human
# Excerpt: TLR7 signaling has predominantly been studied in APC where it is linked to IRF7, NFκB and JNK activation through either MyD88/IRAK4-dependent or -independent pathways. In order to examine the consequences of TLR7 signaling on CD4^+ T cells in relation to ‘conventional’ TLR signaling, ex vivo isolated CD4^+ T cells from healthy individuals were stimulated with IMQ and the phosphorylation status of IRAK4, JNK, NFkB (p65), p38 MAPK and IRF7 was examined by flow cytometry (FIG. 31A). […] One of the targets that are phosphorylated by activated JNK is Jun, a component of AP-1, which is an essential transcription factor involved in costimulatory signal transduction. It was determined if inhibition of JNK activity by IMQ could explain, at least in part, the anergic phenotype observed in CD4^+ T cells after IMQ stimulation in the presence of full stimulation with TCR and costimulatory signals. To test this hypothesis, CD4^+ T cells were stimulated with PMA and Ionomycin in the presence or absence of IMQ, and the phosphorylation status of JNK and Jun was examined at different time points. NFκB and p38 were used as positive controls (FIGS. 31B and 31C).
# NFAT1 = NFAT1 dephosphorylation, Western blot; assay type: cell-based, human; conditions: 0, 45 and 90 minutes; confirmed with phospho-specific antibody, 40 minutes
# Method: Western blotting. Total protein extracts were isolated with M-PER protein extraction kit (Thermo Scientific) and quantified with a BCA kit (Thermo Scientific). 20 μg of protein extract were loaded per lane, separated on a 10% SDS-PAGE gel and transferred to a nitrocellulose membrane. anti-NFAT1 and anti-β-actin were obtained from Cell Signaling Technology. Anti-pNFAT1 (Ser213/217/229) antibody was obtained from Santa Cruz Biotechnology (Dallas, Tex.). Primary antibodies were detected by secondary anti-rabbit-HRP-conjugated (Cell Signaling Technology) and images were obtained in a CCD camera instrument. Bands were quantified with QuantityOne software.
# An immediate consequence of increased concentration of intracellular calcium is the activation of the nuclear factor of activated T-cells (NFAT1), a transcription factor that is highly phosphorylated in resting cells and becomes dephosphorylated by the calcium/calmodulin-dependent phosphatase calcineurin when the concentration of intracellular calcium is increased. To examine whether IMQ stimulation induced the dephosphorylation of NFAT1, we stimulated CD4^+ T cells with IMQ and purified total protein extracts at 0, 45 and 90 minutes (FIG. 25A).
# CD4^+ T cells [2] = experiment: Conversion into regulatory T cells (Foxp3 expression, IL-10 secretion); assay type: cell-based, human
# Excerpt: Cell activation and intracellular staining.
# Enzyme-linked immunosorbent assay.
# CD4^+ T cells [3] = experiment: Cytokine gene expression in stimulated CD4+ T cells, TaqMan real-time PCR; assay type: cell-based, human; conditions: 12 hours after activation
# Excerpt: Quantification of mRNA expression levels by RT-PCR. RNA was isolated using QIAGEN RNeasy Micro Plus Kit (QIAGEN, Valencia, Calif.), following manufacturer's guidelines and converted to cDNA by reverse transcription (RT) with random hexamers and Multiscribe RT (TQMN, Reverse Transcription Reagents; Applied Biosystems, Foster City, Calif.). For mRNA gene expression assays, probes were purchased from Applied Biosystems (Table 2) and the reactions were set up following manufacturer's guidelines and run on a StepOne Real-Time PCR System (Applied Biosystems). Values are represented as the difference in Ct values normalized to β2-microglobulin for each sample as per the following formula: Relative RNA expression=(2^−dCt)×1000.
# HIV-1NL-D = experiment: HIV-1 in vitro infection of CD4+ T cells; assay type: cell-based; conditions: treatment before infection, MOI 0.001
# Method: Preparation of HIV-1 virus stocks. HIV-1 proviral DsRed-tagged DNA pNL-D (derived from the prototype HIV-1 proviral DNA pNL432) was kindly provided by Dr. Yasuko Tsunetsugu-Yokota. 293T cells were used to prepare viral stocks following published protocols with minor modifications. In brief, 293T cells were plated at 0.5×10^6/well in 12-well plates and transfected with 2 μg pNL-D using Lipofectamine 2000 (Invitrogen) for 48 hours. Culture supernatant was treated with benzonase (1U/ml) for 30 minutes at 37 C, cleared by filtration and titrated on 293T cells. Stocks were stored at −80 C.
# HIV-1 in vitro infection. CD4^+ T cells were stimulated with anti-CD3 (1 μg/ml) and anti-CD28 (1 μg/ml) for 48 hours and subsequently infected with HIV-1 at a MOI of 0.001 (concentration within the physiological range). Viability and cytokine secretion was measured every 48 hours for a total of 11 days after infection.
# For HIV-1 infection on TLR7-deficient cells, CD4^+ T cells were stimulated as above and transduced with the corresponding lentiviral particles. 48 hours after transduction, the cells were infected with HIV-1NL-D at a MOI of 0.001. Viability and frequency of HIV-1-infected cells were measured at different time points by LIVE/DEAD cell dye staining and fixation with 1% PFA (to avoid DsRed signal loss). For intracellular staining after infection, the cells were restimulated with PMA and Ionomycin in the presence of GolgiStop for 4 hours and the staining was performed as recommended by Grupillo et al.
# CD4^+ T cells [4] = experiment: Intracellular cytokine staining after PMA and ionomycin restimulation; assay type: cell-based, human; conditions: increasing doses of IMQ; day 4, 4 hour PMA and ionomycin
# Method: Cell activation and intracellular staining. T populations were stimulated with 1 μg/ml anti-CD3, 1 μg/ml anti-CD28 and 10 U/ml IL-2 in the presence or absence of TLR ligands. […] For both extracellular and intracellular stainings, LIVE/DEAD reagent (Molecular Probes) was used to exclude dead cells before surface staining. […] Samples were run on a BD Fortessa instrument and analyzed with FlowJo (TreeStar).
# [5] = with PMA and Ionomycin stimulation
# [6] = with PMA and Ionomycin stimulation, listed as IMQ
structure (smiles),measurement,setting,value
CC(C)Cn1cnc2c(N)nc3ccccc3c21 [Imiquimod],phosphorylation of IRAK4,CD4^+ T cells [1]; IMQ alone vs vehicle,induced
same,phosphorylation of IRF7,CD4^+ T cells [1]; IMQ alone vs vehicle,induced
same,phosphorylation of NFκB,CD4^+ T cells [1]; IMQ alone vs vehicle,induced
same,phosphorylation of p38,CD4^+ T cells [1]; IMQ alone vs vehicle,induced
same,phosphorylated JNK,"CD4^+ T cells [1]; IMQ alone vs vehicle, basal levels",decreased the basal levels
same,Jun gene expression,CD4^+ T cells [1]; after stimulation,decreased
same,NFκB phosphorylation,CD4^+ T cells [1]; [5],did not show an additive effect
same,p38 phosphorylation levels,CD4^+ T cells [1]; [5],further increased
same,JNK phosphorylation,CD4^+ T cells [1]; [6],inhibited; also recorded: decreased
same,Jun phosphorylation,CD4^+ T cells [1]; [6],decreased
same,phosphorylation state of NFAT1,NFAT1,dephosphorylated
same,IL-10 secretion,CD4^+ T cells [2]; ELISA day 3,neither Foxp3 expression (FIG. 11B-11C) or IL-10 secretion was increased
same,Foxp3 expression,CD4^+ T cells [2]; day 4,neither Foxp3 expression (FIG. 11B-11C) or IL-10 secretion was increased
same,induction of IFNγ gene expression,CD4^+ T cells [3],significant decrease
same,induction of IL-2 gene expression,CD4^+ T cells [3],significant decrease
same,induction of IL-4 gene expression,CD4^+ T cells [3],significant decrease
same,frequency of HIV-1-infected CD4+ T cells,HIV-1NL-D,directly correlated with the concentration of IMQ used
same,frequency of cytokine-producing cells,CD4^+ T cells [4],diminished in a dose-dependent manner
